Data: US20240123073A1, “NOVEL RIPK1 KINASE TARGETING PROTACS AND METHODS OF USE THEREOF” (Baylor College of Medicine, priority 2020, published 2024)

Target: T1, RIPK1 (Homo sapiens, UniProt Q13546)
T1 construct: endogenous in cells
T1 sequence (Q13546 1-671): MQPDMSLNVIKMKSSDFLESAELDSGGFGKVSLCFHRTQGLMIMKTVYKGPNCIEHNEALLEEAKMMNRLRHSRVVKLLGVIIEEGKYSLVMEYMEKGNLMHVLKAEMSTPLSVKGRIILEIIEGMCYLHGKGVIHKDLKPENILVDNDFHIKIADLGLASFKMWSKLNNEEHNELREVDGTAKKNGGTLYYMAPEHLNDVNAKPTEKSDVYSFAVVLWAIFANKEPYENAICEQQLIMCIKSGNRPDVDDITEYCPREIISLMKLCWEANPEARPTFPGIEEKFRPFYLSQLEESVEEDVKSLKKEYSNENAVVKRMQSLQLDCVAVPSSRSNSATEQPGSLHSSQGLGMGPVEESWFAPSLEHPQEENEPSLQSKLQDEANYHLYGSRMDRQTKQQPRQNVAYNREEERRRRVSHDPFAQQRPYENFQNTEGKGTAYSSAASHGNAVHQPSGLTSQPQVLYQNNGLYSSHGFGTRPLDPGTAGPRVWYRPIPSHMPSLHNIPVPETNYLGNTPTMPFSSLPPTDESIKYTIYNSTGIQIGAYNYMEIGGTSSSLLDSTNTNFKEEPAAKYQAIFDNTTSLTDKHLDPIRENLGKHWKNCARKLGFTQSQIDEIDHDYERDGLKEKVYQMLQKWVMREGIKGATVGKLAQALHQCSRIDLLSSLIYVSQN
Assay: RIPK1 degradation Western Blot assay
Assay type: cell-based
Settings: human cells, 24 h incubation at 37° C., read-out: Degradation Activity (DC50, concentration at which 50% of RIPK1 kinase has been degraded)
Protocol: Cells were seeded in 6-well cell culture plates overnight prior to treatment and incubated with the indicated doses of compounds for 24 h at 37° C. Then, cell pellets were collected and resuspended with RIPA lysis buffer, which was added with 1% […] inhibitor and phosphatase inhibitor Cocktail. Whole-cell protein lysates were sonicated on ice for 20 seconds and centrifuged at 12 000 rpm for 20 min at 4° C. The supernatants were determined using the BCA method. Proteins were separated by sodium dodecyl sulfate-polyacrylamide gel electrophoresis and transferred to polyvinylidene fluoride membranes. The membranes were incubated with blocking buffer for 1 h. Then, the membranes were incubated at 4° C. overnight with the primary antibodies. After washing, the membranes were incubated for 1 h at room temperature with the secondary antibody and washed again. Changes in protein expression was detected using an enhanced chemiluminescence detection reagent. RIPK1 antibody was purchased from Santa Cruz.
The activities of exemplary compounds as described herein, measured in terms of the degradation concentration (DC50 representing the concentration at which 50% of the target, in this case RIPK1 kinase, has been degraded), are provided in Table 11. In Table 11, a DC50 value less than 1 μM is indicated as an “A;” a DC50 value from 1 μM to 10 μM is indicated as a “B” and a DC50 value of greater than 10 μM is indicated as a “C.”

| SMILES | DC50 [µM] |
| --- | --- |
| Cc1ncsc1-c1ccc([C@H](C)NC(=O)[C@@H]2C[C@@H](O)CN2C(=O)[C@@H](NC(=O)CCC(=O)NCCCn2cc(-c3ccc4c(c3)CCN4C(=O)Cc3cccc(OC(F)(F)F)c3)c3c(N)ncnc32)C(C)(C)C)cc1 [Compound 1, N1-(3-(4-amino-5-(1-(2-(3-(trifluoromethoxy)phenyl)acetyl)indolin-5-yl)-7H-pyrrolo[2,3-d]pyrimidin-7-yl)propyl)-N4-((S)-1-((2S,4R)-4-hydroxy-2-(((S)-1-(4-(4 methylthiazol-5-yl)phenyl)ethyl)carbamoyl)pyrrolidin-1-yl)-3,3-dimethyl-1-oxobutan-2-yl)succinimide] | 1 to 10 |
| Nc1ncnc2c1c(-c1ccc3c(c1)CCN3C(=O)Cc1cccc(OC(F)(F)F)c1)cn2CCCNC(=O)CCOCCOCCOCCNc1cccc2c1C(=O)C(C1CCC(=O)NC1=O)C2=O (stereo not drawn) [Compound 8, N-(3-(4-amino-5-(1-(2-(3-(trifluoromethoxy)phenyl)acetyl)indolin-5-yl)-7H-pyrrolo[2,3-d]pyrimidin-7-yl)propyl)-3-(2-(2-(2-((2-(2,6-dioxopiperidin-3-yl)-1,3-dioxo-2,3-dihydro-1H-inden-4-yl)amino)ethoxy)ethoxy)ethoxy)propanamide] | 1 to 10 |
| Nc1ncnc2c1c(-c1ccc3c(c1)CCN3C(=O)Cc1cccc(OC(F)(F)F)c1)cn2CCCNC(=O)CCCCCCCCNC(=O)[C@@H]1NC2(CCCCC2)[C@@]2(C(=O)Nc3cc(Cl)ccc32)[C@H]1c1cccc(Cl)c1F [Compound 10, (3′R,4'S,5′R)-N-(9-((3-(4-amino-5-(1-(2-(3-(trifluoromethoxy)phenyl)acetyl)indolin-5-yl)-7H-pyrrolo[2,3-d]pyrimidin-7-yl)propyl)amino)-9-oxononyl)-6″-chloro-4′-(3-chloro-2-fluorophenyl)-2″-oxodispiro[cyclohexane-1,2′-pyrrolidine-3′,3″-indoline]-5′-carboxamide] | 1 to 10 |
| O=C1CCC(C2C(=O)c3cccc(NCCOCCOCCOCCC(=O)N4CCC(C(=O)N5N=CCC5c5ccccc5)CC4)c3C2=O)C(=O)N1 (stereo not drawn) [Compound 11] | > 10 |
| O=C1CCC(C2C(=O)c3cccc(NCCOCCOCCC(=O)N4CCC(C(=O)N5N=CCC5c5ccccc5)CC4)c3C2=O)C(=O)N1 (stereo not drawn) [Compound 12] | > 10 |
| Cc1ncsc1-c1ccc([C@H](C)NC(=O)[C@@H]2C[C@@H](O)CN2C(=O)[C@@H](NC(=O)CCCCCCCCC(=O)N2CCC(C(=O)N3N=CCC3c3ccccc3)CC2)C(C)(C)C)cc1 (stereo partly drawn) [Compound 13, (2S,4R)-1-((2S)-3,3-dimethyl-2-(10-oxo-10-(4-(5-phenyl-4,5-dihydro-1H-pyrazole-1-carbonyl)piperidin-1-yl)decanamide)butanoyl)-4-hydroxy-N—((S)-1-(4-(4-methylthiazol-5-yl)phenyl)ethyl)pyrrolidine-2-carboxamide] | > 10 |
| O=C(NCCOCCC(=O)N1CCC(C(=O)N2N=CCC2c2ccccc2)CC1)[C@@H]1NC2(CCCCC2)[C@@]2(C(=O)Nc3cc(Cl)ccc32)[C@H]1c1cccc(Cl)c1F (stereo partly drawn) [Compound 15, (3′R,4'S,5′R)-6″-chloro-4′-(3-chloro-2-fluorophenyl)-2″-oxo-N-(2-(3-oxo-3-(4-(5-phenyl-4,5-dihydro-1H-pyrazole-1-carbonyl)piperidin-1-yl)propoxy)ethyl)dispiro[cyclohexane-1,2′-pyrrolidine-3′,3″-indoline]-5′-carboxamide] | 1 to 10 |
| O=C1CCC(N2C(=O)c3cccc(NCCOCCOCCOCCNC(=O)c4ccnc(N5CCC(C(=O)N6N=CCC6c6ccccc6)CC5)n4)c3C2=O)C(=O)N1 (stereo not drawn) [Compound 19, N-(2-(2-(2-(2-((2-(2,6-dioxopiperidin-3-yl)-1,3-dioxoisoindolin-4-yl)amino)ethoxy)ethoxy)ethoxy)ethyl)-2-(4-(5-phenyl-4,5-dihydro-1H-pyrazole-1-carbonyl)piperidin-1-yl)pyrimidine-4-carboxamide] | 1 to 10 |
| O=C(NCCOCCOCCOCCNC(=O)[C@@H]1NC2(CCCCC2)[C@@]2(C(=O)Nc3cc(Cl)ccc32)[C@H]1c1cccc(Cl)c1F)c1ccnc(N2CCC(C(=O)N3N=CCC3c3ccccc3)CC2)n1 (stereo partly drawn) [Compound 20, (3′R,4'S,5′R)-6″-chloro-4′-(3-chloro-2-fluorophenyl)-2″-oxo-N-(1-oxo-1-(2-(4-(5-phenyl-4,5-dihydro-1H-pyrazole-1-carbonyl)piperidin-1-yl)pyrimidin-4-yl)-5,8,11-trioxa-2-azatridecan-13-yl)dispiro[cyclohexane-1,2′-pyrrolidine-3′,3″-indoline]-5′-carboxamide] | 1 to 10 |

Continued, values first:

| DC50 [µM] | SMILES |
| --- | --- |
| > 10 | O=C1CCC(N2C(=O)c3cccc(NCCOCCOCCOCCNC(=O)c4ccc(-c5cc(N6CCC(C(=O)N7N=CCC7c7ccccc7)CC6)ncn5)cc4)c3C2=O)C(=O)N1 (stereo not drawn) [Compound 21, N-(2-(2-(2-(2-((2-(2,6-dioxopiperidin-3-yl)-1,3-dioxoisoindolin-4-yl)amino)ethoxy)ethoxy)ethoxy)ethyl)-4-(6-(4-(5-phenyl-4,5-dihydro-1H-pyrazole-1-carbonyl)piperidin-1-yl)pyrimidin-4-yl)benzamide] |
| > 10 | Cc1ncsc1-c1ccc([C@H](C)NC(=O)[C@@H]2C[C@@H](O)CN2C(=O)[C@@H](NC(=O)CCOCCOCCOCCNC(=O)c2ccc(-c3cc(N4CCC(C(=O)N5N=CCC5c5ccccc5)CC4)ncn3)cc2)C(C)(C)C)cc1 (stereo partly drawn) [Compound 23, (2S,4R)-1-((16S)-16-(tert-butyl)-1,14-dioxo-1-(4-(6-(4-(5-phenyl-4,5-dihydro-1H-pyrazole-1-carbonyl)piperidin-1-yl)pyrimidin-4-yl)phenyl)-5,8,11-trioxa-2,15-diazaheptadecane-17-oyl)-4-hydroxy-N—((S)-1-(4-(4-methylthiazol-5-yl)phenyl)ethyl)pyrrolidine-2-carboxamide] |
| < 1 | Cc1ncsc1-c1ccc([C@H](C)NC(=O)[C@@H]2C[C@@H](O)CN2C(=O)[C@@H](NC(=O)CCOCCOCCOCCOCCn2cc(-c3ccc4c(c3)CCN4C(=O)Cc3cccc(OC(F)(F)F)c3)c3c(N)ncnc32)C(C)(C)C)cc1 [Compound 29, (2S,4R)-1-((S)-1-(4-amino-5-(1-(2-(3-(trifluoromethoxy)phenyl)acetyl)indolin-5-yl)-7H-pyrrolo[2,3-d]pyrimidin-7-yl)-17-(tert-butyl)-15-oxo-3,6,9,12-tetraoxa-16-azaoctadecan-18-oyl)-4-hydroxy-N—((S)-1-(4-(4-methylthiazol-5-yl)phenyl)ethyl)pyrrolidine-2-carboxamide] |
| < 1 | Cc1ncsc1-c1ccc([C@H](C)NC(=O)[C@@H]2C[C@@H](O)CN2C(=O)[C@@H](NC(=O)CCc2ccc(C#Cc3ccc(C(=O)NCCCn4cc(-c5ccc6c(c5)CCN6C(=O)Cc5cccc(OC(F)(F)F)c5)c5c(N)ncnc54)cc3)cn2)C(C)(C)C)cc1 [Compound 33] |
| < 1 | Cc1ncsc1-c1ccc([C@H](C)NC(=O)[C@@H]2C[C@@H](O)CN2C(=O)[C@@H](NC(=O)CCc2ccc(C#Cc3ccc(CCC(=O)NCCCn4cc(-c5ccc6c(c5)CCN6C(=O)Cc5cccc(OC(F)(F)F)c5)c5c(N)ncnc54)cc3)cn2)C(C)(C)C)cc1 [Compound 34] |
| < 1 | Cc1ncsc1-c1ccc([C@H](C)NC(=O)[C@@H]2C[C@@H](O)CN2C(=O)[C@@H](NC(=O)c2ccc(C#Cc3ccc(C(=O)NCCCn4cc(-c5ccc6c(c5)CCN6C(=O)Cc5cccc(OC(F)(F)F)c5)c5c(N)ncnc54)cc3)cn2)C(C)(C)C)cc1 [Compound 35] |
